These results are taken from patent US6335368B1, “Use of alverine for reducing wrinkles” (Societe L'Oreal S.A., priority 1999, dated 2002).

Each structure is given as a SMILES string. Like-named read-outs stand apart in the source and are kept apart here.

The experiment deals with phrenic nerve/diaphragm isolated from rat (striated muscle). The experiment is described as follows: Nerve/muscle junction (motor plate) model: isolated rat phrenic nerve/diaphragm preparation. In kind it is cell-based. The conditions noted are these: for inhibition at 100 µM: Rattus norvegicus. The procedure:
Activity of Alverine in a model of nerve/muscle junction (motor plate) measured in a preparation of phrenic nerve/diaphragm isolated from rat (striated muscle) (Pollard B. J. et al, Br. J. Anaesth., 1988, 61, 419-424). The phrenic nerve and the diaphragm are carefully isolated and placed in a 50 ml tank filled with survival fluid (Krebs-Henseleit fluid) maintained at a temperature of 37° C. and oxygenated using an oxygen/CO2 mixture (95/5). The variations in tension of the diaphragm are recorded with an initial preload of several grams. After a relaxation period of 30 min., the diaphragm is stimulated indirectly via the phrenic nerve. On each preparation, the effect of the test products was evaluated in a first stage as regards the contractions induced by indirect stimulation via stimulation of the phrenic nerve (0.1 to 0.5 volts, 0.3 ms, 0.1 Hz) at increasing and cumulative concentrations from 10^−9 M to 10^−4 M. In the event of an effect at the end of the test, the diaphragm is stimulated directly in order to determine whether or not the inhibition of the neurotransmission results from a pre-junctional blockage or a post-junctional blockage.

By inhibition is commonly meant the percentage by which the read-out fell short of the control.

`CCN(CCCc1ccccc1)CCCc1ccccc1` [Alverine, di(phenylpropyl)ethylamine]: for the setting “10^−4 M”, the “inhibition of contractions induced by the indirect stimulations” value is recorded as “completely inhibits”. For the same molecule, the inhibition at 100 µM (10^−4 M Alverine, contractions induced by indirect stimulation via phrenic nerve, 1st study, read-out: % of inhibition, indirect stimulation) was 100%; the inhibition at 100 µM (10^−4 M Alverine, contractions induced by indirect stimulation via phrenic nerve, 2nd study, read-out: % of inhibition, indirect stimulation) came out at 100%; the inhibition at 100 µM (10^−4 M Alverine, direct stimulation of the diaphragm, 1st study, read-out: % of inhibition, direct stimulation) was 61.4%; the inhibition at 100 µM (10^−4 M Alverine, direct stimulation of the diaphragm, 2nd study, read-out: % of inhibition, direct stimulation) turned out to be 42.2%; the inhibition at 100 µM (10^−4 M, read-out: inhibition of contractions induced by the direct stimulations) was around 50%.
